Measurements from US20080085528A1, “G[…] ASSAYS FOR MEASURING KINETIC AND […]” (Bristol-Myers Squibb Company, priority 2006, published 2008).

Tests used:
Assay type in all cases: biochemical
human hepatic GK [1] = target: T1, human hepatic GK (Homo sapiens, UniProt P35557); assay: tandem assay (uncoupled G-6-P detection, heat stop)
T1 sequence (P35557 1-466 isoform P35557-2): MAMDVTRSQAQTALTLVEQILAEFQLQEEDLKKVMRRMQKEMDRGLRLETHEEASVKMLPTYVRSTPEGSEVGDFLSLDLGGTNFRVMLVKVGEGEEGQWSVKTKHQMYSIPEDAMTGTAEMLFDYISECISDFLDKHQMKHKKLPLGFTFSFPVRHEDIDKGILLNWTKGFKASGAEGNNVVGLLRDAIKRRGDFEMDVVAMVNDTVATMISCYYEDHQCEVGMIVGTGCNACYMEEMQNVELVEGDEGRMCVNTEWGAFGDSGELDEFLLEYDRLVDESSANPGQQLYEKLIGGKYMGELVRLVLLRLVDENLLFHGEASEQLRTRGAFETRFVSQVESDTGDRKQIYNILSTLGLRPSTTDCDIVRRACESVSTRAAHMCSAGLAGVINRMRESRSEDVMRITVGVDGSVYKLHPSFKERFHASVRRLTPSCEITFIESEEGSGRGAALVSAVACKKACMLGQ
Experimental: Purified human recombinant GK was used to measure the activation of GK activity by glucose and a GK activator (Compound “C”) in the tandem assay. A suitable vehicle (for instance 24% DMSO in pH 7.25 Tris buffer), with or without (control) a GK modulator of interest was incubated with GK (50 μl of a 24 nM stock solution) over a range of concentrations of glucose (for instance from 0.32 to 80 mM) for 30 minutes in a 96-well PCR plate (10 μl). The GK reaction was initiated by addition of Mg-ATP (20 μl). The solution used comprised 12 mM ATP and 16 mM MgCl2. The final assay conditions were 25 mM Tris, pH 7.25, 1 mM DTT and 3% DMSO, 15 nM GK, 3 mM ATP and 4 mM MgCl2. Glucose stock solution (IM) was diluted to generate a dilution series with final glucose concentrations of: 0.2, 0.4, 0.6, 0.8, 1, 1.5, 2, 3, 4, 5, 6, 8, 10, 12, 20 and 50 mM. The total reaction volume per well was about 80 μl.
The GK reaction proceeded for about 10 minutes, and was followed by heating the 96-well plate in a hot water bath (100° C.) for 30 seconds to stop the reaction. […] An aliquot of reaction mixture (typically 50 μl) was then transferred to a second 96 well plate suitable for taking absorbance measurements. […] The reagents and reaction mixture are mixed for 2 minutes, followed by measurement of the absorbance at 405 nm using a plate reader. […]

human full-length GK = target: T2, human full-length GK (Homo sapiens, UniProt P35557); assay: tandem assay with EDTA quench; settings: 12 mM glucose
T2 construct: human full-length GK (15 nM) was incubated with various concentrations of glucose
T2 sequence (P35557 1-466 isoform P35557-2): T1 sequence (P35557 1-466 isoform P35557-2)
Experimental: The protocol used is essentially as described above with some variation. Briefly, human full-length GK (15 nM) was incubated with various concentrations of glucose in the range from 0.33 to 50 mM in clear bottom 384 well microtiter plates. To initiate the GK reaction, Mg-ATP (3 mM final concentration) was added to the protein in buffer, under the final buffer conditions of 25 mM HEPES, pH 7.1, containing 1 mM DTT and 5% DMSO. The total reaction volume was 20 μl. The reaction was allowed to proceed for ten minutes and was then quenched with 5 μl EDTA (45 mM final).
The components of the secondary reaction, ThioNAD and G6PDH (final concentrations of 650 μM and 3.33 Units, respectively), were then added together in a volume of 25 μl, and a total volume of 50 μl. Absorbance was read and activation calculated as a percentage of background activity, i.e., GK in the presence of DMSO, with background G6P subtracted. Background G6P was determined by pre-quenching GK with EDTA prior to reaction initiation with ATP.
The tandem assay (EDTA quench) was used to assess the activity of GK in the presence of putative GK activator compounds. The above-described tandem assay protocol was followed using a range of activator compound concentrations from 0 to 100 μM.

human hepatic GK [2] = target: T1, human hepatic GK; assay: filtration-based assay (direct G-6-P capture by ion-exchange resin); settings: 12 mM glucose, FIG. 7
Experimental: Human full-length recombinant GK was used to measure the activation of GK. Human full-length GK (15 nM) was incubated with various concentrations of glucose in the range from 0.33 to 50 mM in the presence of tritiated glucose (3H-glucose [6-^3H], 0.33 μCi) in 96 well microtiter plates. To initiate the GK reaction, Mg-ATP (3 mM final) was added to the protein in buffer, under the final buffer conditions of 25 mM HEPES, pH 7.1, containing 1 mM DTT and 5% DMSO. The total reaction volume was 110 μl. The reaction was allowed to proceed for ten minutes (i.e., the linear portion of the reaction) and was then quenched with 100 mM formic acid (1:1). A 200 μl aliquot of the quenched reaction products was then transferred to wells in a 96-well MultiScreen-GV 96 filtration plate containing 100 μl/well of Bio-rad AG 1-X8 Resin, formate form. The resin was then washed with H2O (1 ml/well), and the GK reaction product (G-6-P) eluted with 1M ammonium formate, pH 5 (200 μl/well). A 50 μl aliquot of this eluate was added to an Optiplate white 96 well plate containing 200 μl of Microscint PS. The plate was sealed and shaken for 5 minutes, and read on a Topcount scintillation counter (Perkin Elmer). The raw counts were converted to product concentration by comparison of the raw counts in the sample wells to wells containing a standard curve having known concentrations of ^3H-glucose-6-phosphate. […]

SMILES: CCOP(=O)(Cc1cnc(NC(=O)[C@H](CC2CCCC2)c2ccc(S(C)(=O)=O)cc2)cn1)OCC [Compound A, (R)-diethyl (5-(3-cyclopentyl-2-(4-(methylsulfonyl)phenyl)propanamido)pyrazin-2-yl)methylphosphonate]
- Kcat in the presence of GK activator (human hepatic GK [1]; 20 uM activator, control 3% DMSO): 44 S^−1
- KM compared to the controls (human hepatic GK [1]; in the presence of the activator, FIG. 8): substantially lower
- AC50 (human full-length GK; FIG. 10): ~0.904 µM
- Emax (human full-length GK; FIG. 10, read-out: maximal activation of background GK activity): 208%
- AC50 (human hepatic GK [2]): 7.1 µM
- Emax (human hepatic GK [2]; read-out: maximal activation number (above background)): 228%
